In turn, `O=C(Nc1cc(Cl)cc(Cl)c1)Nc1ccc(Cl)cc1-c1nnn[nH]1` registered a melting point of 234 to 236 °C.

With `O=C(N[C@H](Cc1ccc(C(F)(F)F)cc1)[C@@H](O)c1ccccc1)c1ccc(F)c2ccccc12` (racemic), the melting point fell in the range of 217 to 218 °C.

Turning to `CCCC1CCC(c2ccc(-c3cc(F)c(C(F)(F)Oc4cc(F)c(C(F)(F)F)c(F)c4)c(F)c3)c(F)c2)OC1` (stereo not drawn), the melting point turned out to be 95 °C.

With `Cn1ncnc1COc1nn2c(-c3ccccc3F)nncc2c1-c1cccc(F)c1`, the melting point worked out at 176 °C.

`CC1CCCC(C)N1CCNC(=O)CN1CC(c2ccccc2)CC1=O` (stereo not drawn) returned a melting point of 115 to 116 °C.

`NC(=O)c1cn(CCOC(=O)Oc2ccccc2)nc1[N+](=O)[O-]` registered a melting point of 108 to 110 °C.

`CC(C)Oc1cccc(-c2nn(C(C)c3oc4ccccc4c(=O)c3-c3cccc(F)c3)c3ncnc(N)c23)c1` (stereo not drawn) came in with a melting point of 153 to 157 °C.

`CC(C)Cc1ccc(C(=O)O)c(=O)n1C`: the melting point was 118 to 119 °C.

For `COc1ccc(NC(=O)OCC2(COC(=O)Nc3ccc(OC)cc3)CSc3ccccc3C2=O)cc1`, the melting point fell in the range of 58 to 63 °C.

`COc1ccc(CCNc2nc(Cl)nc(N3CCc4cc(OC)c(OC)cc4C3)n2)cc1OC` came in with a melting point of 152 to 153 °C.

In turn, `O=[N+]([O-])c1nccnc1NCC(O)CO` (stereo not drawn) gave a melting point of 100 to 102 °C.

Consider `CC(CO)c1ccc(-c2ccccc2F)cc1` (stereo not drawn), for which the melting point lay in the range of 73 to 74 °C.

In turn, `CCc1nc(/C=C\c2cn(-c3ccccc3)nc2OCc2ccc(OCc3nc(-c4cccc(C(=O)OC)c4)oc3C)c(OC)c2)cs1` showed a melting point of 125 to 126 °C.

Turning to `O=C1CCc2cc(-c3ccccc3)ccc21`, the melting point is 75 °C.

In turn, `N#CCC1OC(n2cnc3c(NN4CCC(Sc5ccccc5)CC4)nc(Cl)nc32)C(O)C1O` (stereo not drawn) had a melting point of 159 to 161 °C.

Turning to `CCCCC1OC(=O)c2cc(N)c(N)cc21` (stereo not drawn), the melting point was 94 to 96 °C.

For `O=CNCc1cc(C(O)CNCCCCCCOCCCCc2ccccc2)ccc1O` (stereo not drawn), the melting point was in the range of 76 to 77 °C.

Take `Cc1ccc2nc(-c3ccccc3C#N)ncc2c1`: the melting point lay within 174 to 176 °C.

The molecule `CCC(OC(C)=O)c1ccc(Cl)c2nc3n(c12)CCCN3c1ccc(N(C)C)nc1C` (stereo not drawn) registered a melting point of 165 to 166 °C.

In the case of `N#Cc1cnn(-c2ccc(C(F)(F)F)cc2[N+](=O)[O-])c1N`, the melting point fell in the range of 234 to 236 °C.

`COc1ccc(C(=O)[C@H]2CC=CC[C@H]2C(=O)O)cc1OC1CCCC1` (relative stereo) displayed a melting point of 114 to 115 °C.

As to `Nc1nc(-n2cc(C(=O)O)c(=O)c3cc(F)c(N4CC(O)C4)c(F)c32)c(F)cc1F`, the melting point lay within 269 to 272 °C.

`Cc1cc(OCC(F)(F)F)c(Cl)cc1[N+](=O)[O-]` returned a melting point of 76 to 79 °C.

As to `COc1cc2ncc(C#N)c(Nc3cc(C)ccc3O)c2cc1OC`, the melting point lay within 198 to 200 °C.

In turn, `COc1ccc2c(c1)CC1(CCC(=O)CC1)C21OCCO1` showed a melting point of 142 to 144 °C.

`Cn1ncnc1COc1nc2c(-c3cc(F)ccc3F)nncn2c1-c1ccccc1` came in with a melting point of 200 °C.

For `O=C(O)c1n[nH]c(C(=O)O)c1[N+](=O)[O-]`, the melting point fell in the range of 325 to 327 °C.

`CC(=O)COc1ccc(-c2ccc(=O)n(Cc3ccc(Cl)cc3F)c2)cc1` had a melting point of 127 °C.

In turn, `Cc1ccc(C)c(NS(=O)(=O)c2ccc(N3CCNC3=O)cc2)c1` displayed a melting point of 213 to 215 °C.

In turn, `CN1CNC(=S)N(c2ccc(N(C)C)cc2)C1` gave a melting point of 173 to 175 °C.

With `O=C(O)CCCCNC(=O)NCCCCC1CCSS1` (stereo not drawn), the melting point was in the range of 125 to 132 °C.

On to `Cc1nc(-c2ccc(C(F)(F)F)cc2)oc1COc1ccc(/C=C/C(=O)O)cc1`, for which the melting point was determined as 193 °C.

`CCOC(=O)c1cc(C#N)c(C=O)nc1NC(C)CC` (stereo not drawn) had a melting point of 37 to 38 °C.

In turn, `CCCCNS(=O)(=O)CC(O)C(O)C(CC1CCCCC1)NC(=O)c1ccc(O)c(O)c1` (stereo not drawn) returned a melting point of 162 to 165 °C.

`COc1cc(-c2cnc3[nH]cc(C(=O)C(C)(C)CO)c3n2)cc(OC)c1OC` registered a melting point of 227 to 229 °C.

Turning to `Cc1ccc2c(c1)CN(C)C(=O)CC2`, the melting point is 75 to 76 °C.

Molecule `N#Cc1cnc2sc(-c3ccccc3)cc2c1Nc1cccc2[nH]ccc12` registered a melting point greater than 245 °C.

`COC(=O)Cc1nnc2n1-c1ccc(Cl)cc1C(c1ccccc1)=NC2` showed a melting point of 202 to 204 °C.

In turn, `CCCc1nc(C)nc(NN)c1Cc1ccc(-c2ccccc2C#N)cc1` gave a melting point of 156 °C.

`CC(=O)c1c(C=O)[nH]c(-c2ccncc2)c1C` showed a melting point of 208 to 209 °C.

Molecule `COc1ccc2nc(N)nc(C3CCN(C(=O)c4ccccc4)CC3)c2c1` came in with a melting point of 172 to 173 °C.

On to `CCCCCCCCCCCCC(C)COc1ccc(C(=O)O)o1` (stereo not drawn), for which the melting point is 88 to 90 °C.

As to `CNC(=NS(C)(=O)=O)Nc1ccc(C2=NNC(=O)CC2C)cc1` (stereo not drawn), the melting point lay within 228 to 230 °C.

In the case of `COC(=O)[C@H]1CC[C@H](N2CCN(c3ccc(C4(C)CCN(C(=O)C(F)(F)F)CC4)cc3)C2=O)CC1`, the melting point was in the range of 158 to 161 °C.

In turn, `O=[N+]([O-])c1ccccc1C1=NCC(=S)Nc2sccc21` showed a melting point of 207 to 209 °C.

For `CCNc1cc(Cl)nc(C#N)c1[N+](=O)[O-]`, the melting point was found to be 120 °C.

Take `O=C(Cl)c1cc(Cl)c(Cl)c(Cl)n1`: the melting point lay in the range of 60 to 62 °C.

Molecule `COc1cc2[nH]ccc2cc1OCCCN1CCC(c2noc3cc(F)ccc23)CC1` yielded a melting point of 186 to 188 °C.

Turning to `CC(C)(C)c1cc(OCCCC#N)cc(C(C)(C)C)c1O`, the melting point was in the range of 67 to 69 °C.

On to `COC(=O)c1c(-c2ccc(OC)cc2)sc2cc(OC)ccc12`, for which the melting point lay in the range of 85.4 to 86.6 °C.

Consider `Cc1ccc(S(=O)(=O)Oc2c(C(=O)c3ccc(S(C)(=O)=O)cc3Cl)cnn2C)cc1`, for which the melting point fell in the range of 141 to 145 °C.

`Cc1nc(-n2cnn(Cc3ccc(C(F)(F)F)cc3)c2=O)sc1C(=O)NCc1cccnc1` registered a melting point of 156 to 158 °C.

The molecule `O=C(O)/C=C\C(=O)N1CCc2cc(S(=O)(=O)N3CCN(c4cccc(Cl)c4)CC3)ccc21` showed a melting point of 191 to 192 °C.

The molecule `COc1nc2ccccc2nc1NC(=O)N1CCN(c2cc([N+](=O)[O-])cc([N+](=O)[O-])c2)CC1` gave a melting point of 216 to 218 °C.

Consider `Ic1ccc(OC2CCCC2)cc1`, for which the melting point fell in the range of 50 to 52 °C.

For the molecule `CCNC(C)CN1CCc2c(c(=O)oc3cc(OC)ccc23)C1` (stereo not drawn), the melting point fell in the range of 97 to 100 °C.

Regarding `CC(C#CC1CC1)N(O)C(N)=O` (stereo not drawn), the melting point lay in the range of 142 to 143 °C.

Take `O=C(O)CCC(=O)c1ccc(C2CCCCC2)cc1`: the melting point lay in the range of 140 to 141 °C.

`CCC(C)(C)c1ccc(OCCCNC(=O)c2cc(NC(=O)C(Cl)(Cl)Cl)c3ccccc3c2O)c(C(C)(C)CC)c1` showed a melting point of 190 to 192 °C.

As for `CCCS(=O)(=O)Nc1c(C)c(C)c2c(c1C)C(c1ccc(C(C)C)cc1)CO2` (stereo not drawn), the melting point lay within 133 to 134 °C.

Molecule `CCONC(=O)c1nc(-c2ccc(Cl)c(OC)c2F)cc(N)c1Cl` showed a melting point of 192 to 195 °C.

As for `Nc1nc(N)nc(C23CCN(CC2)CC3)n1`, the melting point was greater than 245 °C.

Molecule `O=C(O)Cc1c(Cl)nc(-c2ccccc2)n1Cc1ccc(O)cc1` had a melting point of 196 to 199 °C.

With `O=C(c1nc2ccccc2n1Cc1ccc(F)cc1)C1CCN(CCC2(Cc3ccc(C(F)(F)F)cc3)CCN(Cc3ccccc3)C2=O)CC1` (stereo not drawn), the melting point lay in the range of 104 to 106 °C.

Turning to `Clc1ccccc1Cc1nc2cccc(CCc3nccs3)c2o1`, the melting point was 64 to 66 °C.

In turn, `CC(=O)O[C@H](CCc1ccc([N+](=O)[O-])cc1)C(=O)O` displayed a melting point of 108 to 109 °C.

Turning to `CS(=O)(=O)c1ccc(-c2cnn(-c3ccc(F)c(F)c3)c(=O)c2Cc2cccc(F)c2)cc1`, the melting point was in the range of 161 to 163 °C.

On to `Nc1ccc(NC2CCCCCC2)c([N+](=O)[O-])c1`, for which the melting point amounted to 153 °C.

The molecule `CC(C)(C)OC(=O)N1CCC=C(C(=O)O)C1` registered a melting point of 198 to 202 °C.

Take `NC1=CC(=O)CC(c2c(Cl)cccc2Cl)C1` (stereo not drawn): the melting point fell in the range of 216 to 217 °C.

Regarding `CC(=O)N(C#N)c1ccc(Cc2ccc(N(C#N)C(C)=O)cc2)cc1`, the melting point is 134 to 136 °C.

As to `CO[C@@H]1C=C(S(=O)(=O)c2ccccc2)[C@@H](C(C)C)CC1`, the melting point worked out at 113 °C.

For `COc1ccc(C(=O)C2(C)CCC(C(=O)O)C2(C)C)c(OC)c1` (stereo not drawn), the melting point came to 134 °C.

`CCOC(=O)c1sc2ccc(O)cc2c1Cl` returned a melting point of 160 to 161 °C.

`O=C(O)[C@H](Cc1ccc(CC(F)(F)C(F)(F)F)cc1)[C@@H](O)c1cccc(Cl)c1` (racemic) showed a melting point of 150 to 151 °C.

As for `Cc1ccc(S(=O)(=O)ON=C2CCOc3cc(Cl)c(Cl)cc32)cc1`, the melting point is 180 to 184 °C.

In turn, `CC(=O)c1ccc(OCCCBr)c(Br)c1` returned a melting point of 83 to 84 °C.

On to `Cc1oc(-c2ccco2)nc1COc1ccc(CC(=O)O)cc1`, for which the melting point fell in the range of 139 to 140 °C.

Regarding `CC(=O)Nc1nc(CCc2ccc(N)cc2)c(C(=O)NCc2ccc([N+](=O)[O-])cc2)s1`, the melting point fell in the range of 120 to 121 °C.

In turn, `CCOC=C1C(=S)c2cc(C)ccc2OC1c1ccccc1` (stereo not drawn) displayed a melting point of 140 to 142 °C.

In the case of `O=C(c1ccc(O)c(O)c1)c1cccc(C(Cc2ccccc2)Cc2ccccc2)n1`, the melting point lay in the range of 141 to 143 °C.

On to `Nc1cccc2c1C(=O)c1c(O)cccc1C2=O`, for which the melting point was in the range of 305 to 308 °C.

For the molecule `COc1c(OCc2ccccc2)c(OC)c2c(=O)cc(-c3ccc(OCc4ccccc4)cc3)oc2c1OC`, the melting point lay within 172 to 173 °C.

Molecule `NC(=O)CC1(c2ccccc2)C(=O)Nc2ccc(Cl)cc21` (stereo not drawn) yielded a melting point of 247 to 248 °C.

Consider `C#CCCCCC(=O)Nc1nc2nn(C)cc2c2nc(-c3ccco3)nn12`, for which the melting point was in the range of 208 to 215 °C.

Molecule `CCC(CO)(OC)c1ccc(-c2ccc(OC)cc2)cc1` (stereo not drawn) showed a melting point of 108 to 109 °C.

Take `CCOc1cccc2oc(C(N)=O)cc12`: the melting point turned out to be 113 °C.

For the molecule `CC(C)(CCCCC(=O)CCCCC(C)(C)C(=O)O)C(=O)O`, the melting point is 60 to 61.5 °C.

Usually melting point stands for the temperature of the solid-liquid transition.

The values above are taken from a melting point compilation (Tetko et al.; mined from patent text by program, amines drawn as free bases though some values may be those of a salt).
